Source: the supplement of paper PMC11451515

Tested on: P12-Ichikawa
Assay: cell viability relative to DMSO control; higher = less cytotoxic
Conditions: 48 h
Procedure, shortened: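 NOMO1 or SEM cells were plated at 500 cells/well and P12-Ichikawa cells at 1000 cells/well in 1536-well plates (5 μl), after each leukemia line had been adapted for at least four passages in each medium. Pin dosing delivered library compounds in DMSO at 11 threefold concentrations, 47 μM to 0.79 nM. CellTiter-Glo One luminescence was read after 48 h at 37°C. Viability is reported as a per-plate percentage of DMSO wells, with cell-free wells as background.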

[1] = HPLM + 10% dialyzed FBS, 0.000781 µM
[2] = HPLM + 10% dialyzed FBS, 0.00234 µM
[3] = HPLM + 10% dialyzed FBS, 0.00702 µM
[4] = HPLM + 10% dialyzed FBS, 0.0211 µM
[5] = HPLM + 10% dialyzed FBS, 0.0632 µM
[6] = HPLM + 10% dialyzed FBS, 0.19 µM
[7] = HPLM + 10% dialyzed FBS, 0.569 µM
[8] = HPLM + 10% dialyzed FBS, 1.71 µM
[9] = HPLM + 10% dialyzed FBS, 5.12 µM
[10] = HPLM + 10% dialyzed FBS, 15.4 µM
[11] = HPLM + 10% dialyzed FBS, 46.1 µM
[12] = RPMI 5 mM glucose + 10% FBS, 0.000781 µM
[13] = RPMI 5 mM glucose + 10% FBS, 0.00234 µM
[14] = RPMI 5 mM glucose + 10% FBS, 0.00702 µM
[15] = RPMI 5 mM glucose + 10% FBS, 0.0211 µM
[16] = RPMI 5 mM glucose + 10% FBS, 0.0632 µM
[17] = RPMI 5 mM glucose + 10% FBS, 0.19 µM
[18] = RPMI 5 mM glucose + 10% FBS, 0.569 µM
[19] = RPMI 5 mM glucose + 10% FBS, 1.71 µM
[20] = RPMI 5 mM glucose + 10% FBS, 5.12 µM
[21] = RPMI 5 mM glucose + 10% FBS, 15.4 µM
[22] = RPMI 5 mM glucose + 10% FBS, 46.1 µM
[23] = RPMI 5 mM glucose + 10% dialyzed FBS, 0.000781 µM
[24] = RPMI 5 mM glucose + 10% dialyzed FBS, 0.00234 µM
[25] = RPMI 5 mM glucose + 10% dialyzed FBS, 0.00702 µM
[26] = RPMI 5 mM glucose + 10% dialyzed FBS, 0.0211 µM
[27] = RPMI 5 mM glucose + 10% dialyzed FBS, 0.0632 µM
[28] = RPMI 5 mM glucose + 10% dialyzed FBS, 0.19 µM
[29] = RPMI 5 mM glucose + 10% dialyzed FBS, 0.569 µM
[30] = RPMI 5 mM glucose + 10% dialyzed FBS, 1.71 µM
[31] = RPMI 5 mM glucose + 10% dialyzed FBS, 5.12 µM
[32] = RPMI 5 mM glucose + 10% dialyzed FBS, 15.4 µM
[33] = RPMI 5 mM glucose + 10% dialyzed FBS, 46.1 µM

Structure (SMILES)	cell viability [1] [%]	cell viability [2] [%]	cell viability [3] [%]	cell viability [4] [%]	cell viability [5] [%]	cell viability [6] [%]	cell viability [7] [%]	cell viability [8] [%]	cell viability [9] [%]	cell viability [10] [%]	cell viability [11] [%]	cell viability [12] [%]	cell viability [13] [%]	cell viability [14] [%]	cell viability [15] [%]	cell viability [16] [%]	cell viability [17] [%]	cell viability [18] [%]	cell viability [19] [%]	cell viability [20] [%]	cell viability [21] [%]	cell viability [22] [%]	cell viability [23] [%]	cell viability [24] [%]	cell viability [25] [%]	cell viability [26] [%]	cell viability [27] [%]	cell viability [28] [%]	cell viability [29] [%]	cell viability [30] [%]	cell viability [31] [%]	cell viability [32] [%]	cell viability [33] [%]
CC[C@@]1(O)C[C@H](O[C@H]2C[C@H](N(C)C)[C@H](O[C@H]3C[C@H](O)[C@H](O[C@H]4CCC(=O)[C@H](C)O4)[C@H](C)O3)[C@H](C)O2)c2c(cc3c(c2O)C(=O)c2c(O)cccc2C3=O)[C@H]1C(=O)OC	94.5	104	97	102	103	106	109	99.9	94.5	85.5	90.1	94.7	96.5	96.8	98.7	102	99	97.2	73.2	75.7	63.9	53.5	95.5	91.1	90.8	93.5	94.9	106	98.7	84.2	78	76.8	63.3
COc1cc([C@@H]2c3cc4c(cc3[C@@H](O[C@@H]3O[C@@H]5CO[C@@H](c6cccs6)O[C@H]5[C@H](O)[C@H]3O)[C@H]3COC(=O)[C@H]23)OCO4)cc(OC)c1O	89.9	91.6	92.9	93	90.1	88.2	83	9.83	71.4	6.48	6.62	77.3	87.9	89.2	95.8	83.3	80.1	68	6.52	55.9	5.89	4.88	84.4	91.5	88.5	82.3	82.7	74.6	73.7	8.53	59	6.51	4.64
COc1cc(N[S+](=O)([O-])c2ccc(N)cc2)nc(OC)n1	114	111	116	112	125	115	112	109	110	110	107	102	106	109	110	107	110	110	110	105	95.8	103	112	108	114	106	117	113	117	117	104	103	101
CC(C)NCC(O)c1ccc(NS(C)(=O)=O)cc1 (stereo unspecified)	104	113	96.3	105	117	111	104	108	98	102	100	109	102	99.9	105	97.9	110	106	112	101	98.7	101	101	102	100	98.6	97	94.3	99.2	91	91	99.2	96.6
C#C[C@]1(O)CC[C@H]2[C@@H]3CCc4cc(OC)ccc4[C@H]3CC[C@@]21C	118	104	111	106	110	98.5	111	102	101	109	98.5	110	101	112	106	113	106	106	108	90.7	111	97.6	103	101	100	107	114	111	107	107	101	102	97.6
CCN(CC)CCN1C(=O)\C(=N/C2=CC=CC=C12)CC3=CC=C(OC)C=C3	107	111	110	114	119	114	120	113	109	114	113	93.6	113	109	119	127	121	130	119	111	114	119	107	112	118	107	112	109	109	111	104	96.5	96.6
COc1cccc2c1C(=O)c1c(O)c3c(c(O)c1C2=O)C[C@@](O)(C(C)=O)C[C@@H]3O[C@H]1C[C@H](N)[C@H](O)[C@H](C)O1	107	112	115	109	114	101	6.62	7.98	8.25	9.65	8.17	94.8	112	113	104	103	73.2	7.42	7.61	7.8	7.04	9.59	102	107	107	106	98	70.8	8.12	7.49	7.97	7.6	8.42
